The subject of data set [1] is CC(=O)N[C@H]1[C@H]([C@H](O)[C@H](O)CO)OC(O)(C(=O)O)C[C@@H]1O. Kind of data set: LDH-coupled continuous assay, enzyme kinetics for the cleavage reaction of Neu5Ac (AsNAL). It counts as biochemical, Aliivibrio salmonicida. The following applies: other: cleavage reaction, Neu5Ac 1-90 mM, 50 mM Tris-HCl pH 8.5, 37° C. How it is done:
(§1) Further, the enzyme kinetics for the cleavage reactions were studied using a lactate dehydrogenase (LDH)-coupled continuous assay (Comb and Roseman, 1960; Wang and Lee, 2006). The incubation mixtures contained variable amounts (1, 5, 15, 30, 45, 60, 75 and 90 mM) of Neu5Ac, 50 mM Tris-HCl, pH 8.5, 0.15 mM NADH (Sigma), 4U LDH (Sigma) and 0.315 μg of NAL in final volumes of 200 μl. Components, except the enzyme, were mixed and incubated at 37° C. for 5 min before the reactions were started by adding the specific enzyme. The measurements were done in triplicates. The decrease in absorbance at 340 nm corresponding to the oxidation of NADH by LDH in presence of released pyruvate was measured spectrophotometrically using a Spectramax M2e Microplate reader. Initial velocities were calculated using the SoftMax Pro software (Molecular Devices) and subsequently fitted to the Michaelis-Menten equation using the program GraphPad Prism 5 (GraphPad Software Inc.). The kcat values were calculated using the formula Vmax/[Enzyme]. The relationship between absorbance and substrate concentration was calculated from a standard-curve obtained by measuring the maximum absorbance from various substrate concentrations. The relationship is given by the formula: y=0.0031x+0.0052, where x is the pyruvate concentration. By using this formula, values of Vmax were converted from mOD/min to μM/min. Enzyme concentrations were converted from mg/ml to molar using the calculated molecular mass of 32257.9 g/mol (monomeric protein).
(§2) The AsNAL Michaelis constant (KM) is somewhat higher than the KM obtained for EcNAL. However, the turnover number, kcat, is strikingly higher than for EcNAL.

For data set [2], the system named is AsNAL. Kind of data set: Cleavage of Neu5Ac, Neu5Gc and KDN by AsNAL (TBA assay). It counts as biochemical, Aliivibrio salmonicida. The following applies: 5 mM substrate, 6.6 μg AsNAL, HEPES pH 8.0, 1 h room temperature. How it is done:
The cleavage reaction of AsNAL contained 6.6 μg of AsNAL, 5 mM Neu5Gc or KDN and 124 mM HEPES buffer pH 8.0. For blank (H2O) and positive control the same components of the reactions were used, but the amount of enzyme was replaced by assay buffer. All reactions were filled up to a total volume of 50 μL with dH2O. The assay was performed in triplicate. After 1 h incubation at room temperature, the enzyme reaction was stopped by adding 2 μL concentrated H2SO4. The thiobarbituric acid (TBA) assay procedure was followed to determine the amount cleaved.

The target in data set [3] is Aliivibrio salmonicida LFI1238 N-acetylneuraminate lyase (AsNAL), wild type, SEQ ID NO: 1 (Aliivibrio salmonicida, UniProt B6EI04). Description: LDH-coupled continuous assay, enzyme kinetics for the cleavage reaction of Neu5Ac (AsNAL). It counts as biochemical. The note with it: Neu5Ac 1-90 mM, 50 mM Tris-HCl pH 8.5, 37° C. How it is done:
as §1, §2

Data set [4] concerns the target T1, E. coli N-acetylneuraminate lyase (EcNAL), commercially available (Sigma) (Escherichia coli, UniProt P0A6L4).
T1 sequence (P0A6L4 1-297): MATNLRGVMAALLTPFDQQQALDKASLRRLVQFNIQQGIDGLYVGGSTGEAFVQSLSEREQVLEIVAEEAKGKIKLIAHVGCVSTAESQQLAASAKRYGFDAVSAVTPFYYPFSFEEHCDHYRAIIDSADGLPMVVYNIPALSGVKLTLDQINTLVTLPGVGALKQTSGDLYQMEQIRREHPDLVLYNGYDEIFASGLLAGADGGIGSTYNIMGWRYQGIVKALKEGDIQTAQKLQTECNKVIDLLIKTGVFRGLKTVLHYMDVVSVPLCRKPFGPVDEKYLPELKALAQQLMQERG
Description: LDH-coupled continuous assay, enzyme kinetics for the cleavage reaction of Neu5Ac (EcNAL). The note with it: Neu5Ac 1-90 mM, 50 mM Tris-HCl pH 8.5, 37° C. It counts as biochemical. How it is done:
as §1, with “The relationship is given by the formula: y=0.0031x+0.0052, where x is the pyruvate concentration. By using this formula, values of Vmax were converted from mOD/min to μM/min.” left out, “protein). […]” for “protein).”

Data set [5] has as its system AsNAL. Description: Production of Neu5,7Ac2/Neu5,8Ac2/Neu5,9Ac2 and legionaminic acid by AsNAL (DMB-HPLC-MS). It counts as biochemical, Aliivibrio salmonicida. The following applies: for RT 3.29 (Area), legionaminic acid / 468.1613@3.56 Area (Neu5,7Ac2) / 468.1613@4.05 Area (Neu5,8Ac2) / 468.1613@4.4 Area (Neu5,9Ac2): 15 mM substrate, 15 mM pyruvate, 28 μg AsNAL, HEPES pH 8.0. How it is done: 15 mM of 4-O-acetyl-2-N-acetylmannosamine (4-OAc-ManNAc) or 2,4-diacetamino-2,4,6-trideoxymannose, 15 mM of pyruvate, 28 μg of enzyme (AsNAL), 124 mM HEPES buffer, pH 8.0 and dH2O were mixed in a tube to a total volume of 200 μl. Aliquots were sampled after 1.0, 1.5 and 4.0 h for production of di-acetylated Neus. For production of Legionaminic acid aliquots were sampled after 1.0 and 3.0 h. Reactions were terminated by addition of 2 μl concentrated H2SO4. Samples were passed over Amicon Ultra spin-columns with a 10000 molecular weight cut-off (Millipore) to remove high molecular weight compounds. The low molecular weight fractions were then used in DMB-HPLC coupled to mass spectrometric analyses. Derivatization of samples with DMB were performed according to protocol given by the supplier (Sialic Acid Fluorescence Labeling Kit, Takara Inc.). Reactions were carried out for 2.5 hours at 50° C. in the dark. A reference panel with a mixture of the Sias; Neu5Gc, Neu5Ac, Neu5,7Ac2, Neu5Gc9Ac, Neu5,9Ac2 and Neu5, (7/8)9Ac3 (ProZyme Inc.) were also subjected to derivatization with DMB. DMB-labeled sialic acids were separated by HPLC using Accela HPLC (Thermo Scientific) on a LTQ Orbitrap XL Fourier Transform Mass Spectrometer (FTMS) with an Electrospray ion source (Thermo Scientific) using a positive ion profile mode fullscan (+pESI). The column used was a Hypersil Gold 50×2.1 mm, 1.9 μm reversed-phase C18 column (Thermo scientific).). Elution was achieved using water with 0.1% formic acid (A) and acetonitrile with 0.1% formic acid (B) at a flow rate of 400 μl/min.
The analytical conditions were set to 300° C. for capillary temperature, 4.5 kV spray voltage, m/z 350-550 scan range and 35% collision energy. The MS/MS was targeted on the masses m/z 426.15, m/z 468.16 and m/z 451.18 using Ion trap MS (ITMS)+cESI with full MS2 in scan range m/z 125-480, corresponding to the DMB derivates DMB-Neu5Ac, DMB-di-acetylated Neu and DMB-Leg.

The nature of data set [6]: Integrated reaction: Neu5Ac production from GlcNAc and pyruvate at alkaline pH (TBA assay). It counts as biochemical. How it is done: For ManNAc reactions, the buffer used was HEPES, pH 8.0. […] Experiments were performed in triplicate. For ManNAc experiments, aliquots were sampled after 0.5, 1.0, 1.5, 2.5 and 4.0 h. For GlcNAc experiments, aliquots were sampled after 12, 24, 36, 48 and 72 h. Reactions were terminated by addition of 2 μl concentrated H2SO4. The time needed for N-acetylneuraminic acid (Neu5Ac) production to get started under these conditions was known to take longer time based on initial test experiments. The thiobarbituric acid (TBA) assay procedure was followed to determine the amount of Neu5Ac produced. The activity was corrected for a blank value. The blank contained all the reaction components except for enzyme.
Initially, also glycine buffer was tested at pH 10.5 and pH 11.0 for the reactions with GlcNAc. GlcNAc will chemically epimerize to ManNAc at pH values above 9.0, which the enzyme will use as substrate for the production of Neu5Ac. The epimerization is pH dependent and will increase with increasing pH. Production of Neu5Ac was higher in CAPS buffer compared to glycine buffer, so this was chosen for further experiments.

By Km is commonly meant the concentration of substrate that gives half-maximal velocity. Usually kcat stands for the number of substrate molecules converted per active site and unit of time at saturation. As a reminder, the kcat/Km is the second-order rate constant that governs catalysis at low substrate concentration.

As for “Aliivibrio salmonicida LFI1238 N-acetylneuraminate lyase (AsNAL), wild type, SEQ ID NO: 1 (Aliivibrio salmonicida LFI1238)”, in data set [1], the Km was determined as 53.88 ± 6.55 mM, the catalytic constant (kcat) was found to be 19.1 s⁻¹ and the catalytic efficiency (kcat/Km) worked out at 354 M⁻¹ s⁻¹.

For the molecule `O=C(O)C(=O)C[C@H](O)[C@@H](O)[C@@H](O)[C@H](O)[C@H](O)CO` [KDN, 2-keto-3-deoxy-D-glycero-D-galacto-nononic acid], in the data set on AsNAL [2], the “% cleaved” value is given as 50.0%, the “Cleaved (OD)” value came to 2.658 ± 0.130 and the “OD sample-blank (measures uncleaved substrate)” value (“OD sample-blank” for short) is on record as 2.662 ± 0.130.

For `CC(=O)N[C@H]1[C@H]([C@H](O)[C@H](O)CO)OC(O)(C(=O)O)C[C@@H]1O` (stereo partly shown) [Neu5Ac, N-acetylneuraminic acid], in data set [3], the Vmax is on record as 315.5 ± 18.5. In addition, in data set [4], the Vmax was 208.9 ± 16.7. Further, in the data set on AsNAL [2], the “% cleaved” value was found to be 82.6%, the “Cleaved (OD)” value was determined as 4.984 ± 0.016 and the “OD sample-blank” value is listed as 1.048 ± 0.016.

Regarding `CC(=O)N[C@@H]([C@H](O)[C@@H](C=O)NC(C)=O)[C@@H](C)O` [2,4-diacetamino-2,4,6-trideoxymannose], the results for the “RT 3.29 (Area), legionaminic acid” value with AsNAL [5] (1 h) and in the data set with AsNAL [5] (3 h) were 902252 and 1663378, respectively.

On to `O=C(CO)N[C@H]1[C@H]([C@H](O)[C@H](O)CO)OC(O)(C(=O)O)C[C@@H]1O` (stereo partly shown) [Neu5Gc, N-glycolylneuraminic acid], for which, in the data set on AsNAL [2], the “% cleaved” value is given as 73.9%, the “Cleaved (OD)” value is recorded as 4.018 ± 0.076 and the “OD sample-blank” value was found to be 1.422 ± 0.076.

Take `CC(=O)N[C@@H]1C(O)O[C@H](CO)[C@@H](OC(C)=O)[C@@H]1O` (stereo partly shown) [4OAc-ManNAc, 4-O-acetyl-2-N-acetylmannosamine]: in the data set on AsNAL [5] (1 hour), the “468.1613@3.56 Area (Neu5,7Ac2)” value worked out at 3258981, the “468.1613@4.05 Area (Neu5,8Ac2)” value was 4611697 and the “468.1613@4.4 Area (Neu5,9Ac2)” value was 20834893. Also, in the data set with AsNAL [5] (1.5 hours), the “468.1613@3.56 Area (Neu5,7Ac2)” value was 4048804, the “468.1613@4.05 Area (Neu5,8Ac2)” value was found to be 5467510 and the “468.1613@4.4 Area (Neu5,9Ac2)” value was 23706892. In the data set with AsNAL [5] (4 hours), the “468.1613@3.56 Area (Neu5,7Ac2)” value was 4484920, the “468.1613@4.05 Area (Neu5,8Ac2)” value is given as 6019425 and the “468.1613@4.4 Area (Neu5,9Ac2)” value is 26500427. For the same molecule, in the data set on AsNAL [5] (same conditions, pH 8.0, asNAL), the “production of Neu5,9Ac2, Neu5,7Ac2 and Neu5,8Ac2 relative to ManNAc as a substrate” value was 30-40%.

B1: EcNAL: commercially available N-acetylneuraminate lyase from E. coli (Sigma) (protein, UniProt P0A6L4 2-297, looked up)
N-acetylneuraminate lyase: ATNLRGVMAALLTPFDQQQALDKASLRRLVQFNIQQGIDGLYVGGSTGEAFVQSLSEREQVLEIVAEEAKGKIKLIAHVGCVSTAESQQLAASAKRYGFDAVSAVTPFYYPFSFEEHCDHYRAIIDSADGLPMVVYNIPALSGVKLTLDQINTLVTLPGVGALKQTSGDLYQMEQIRREHPDLVLYNGYDEIFASGLLAGADGGIGSTYNIMGWRYQGIVKALKEGDIQTAQKLQTECNKVIDLLIKTGVFRGLKTVLHYMDVVSVPLCRKPFGPVDEKYLPELKALAQQLMQERG
Turning to B1, the “production of Neu5Ac (in words)” value in data set [6] (pyruvate and GlcNAc 4:1, CAPS pH 11.0) is recorded as “low”; in data set [6] (pyruvate and GlcNAc, CAPS pH 11.5) it was “no production was observed”.

Source of the values: patent US10378034B2, “Use of a N-acetylneuraminate lyase derived from the bacterium Aliivibrio salmonicida in the production of neuraminic acid and derivatives thereof” (Universitetet i Tromsø-Norges Arktiske Universitet, priority 2014, dated 2019).
